ChEMBL document CHEMBL4665822, “Structure-Guided Optimization of Dipeptidyl Inhibitors of Norovirus 3CL Protease” (J Med Chem, 2020)
pEC50, pIC50: −log10 of the molar value.

How the values were obtained:
[1] = Inhibition of Norovirus 3CL protease using Edans-DFHLQ/GPDabcyl preincubated for 30 mins followed by substrate addition and measured after 1 hr by FRET assay
Norovirus = test: Antiviral activity against Norovirus replicon infected in human HG23 cells assessed as reduction in viral RNA level after 48 hrs by qRT-PCR analysis; type: functional, cell-based; conditions: HG23, 48 h
[2] = Cytotoxicity against human HG23 cells assessed as reduction cell viability after 48 hrs by CytoTox 96 nonradioactive assay; type: cell-based

Row | SMILES | pIC50 [1] | pEC50 (Norovirus) | CC50 at 48 h [2] [nM]
1 | CC(C)C[C@H](NC(=O)OC1(c2cccc(Cl)c2)CC1)C(=O)N[C@@H](C[C@@H]1CCNC1=O)C(O)S(=O)(=O)O (some centres not stated) | 6.60 | 6.26 | > 100000
2 | CC(=O)OC([C@H](C[C@@H]1CCNC1=O)NC(=O)[C@H](CC(C)C)NC(=O)OCC(C)(C)c1cccc(Cl)c1)S(=O)(=O)O (some centres not stated) | 6.89 | 6.35 | > 100000
3 | CC(C)(Cc1cccc(Cl)c1)OC(=O)N[C@@H](CC1CCCCC1)C(=O)N[C@H](C=O)C[C@@H]1CCNC1=O | 5.11 | 5.27 | 15600
4 | CC(C)C[C@H](NC(=O)OCCCc1ccccc1)C(=O)N[C@@H](C[C@@H]1CCNC1=O)C(O)S(=O)(=O)O (some centres not stated) | 6.22 | 6.07 | > 100000
5 | CC(=O)OC([C@H](C[C@@H]1CCNC1=O)NC(=O)[C@H](CC1CCCCC1)NC(=O)OCC(C)(C)c1cccc(Cl)c1)S(=O)(=O)O (some centres not stated) | 7.05 | 6.82 | 67000
6 | CC(C)C[C@H](NC(=O)OCCCc1ccccc1)C(=O)N[C@H](C=O)C[C@@H]1CCNC1=O | 6.12 | 6.11 | > 100000
7 | CC(C)C[C@H](NC(=O)OCC(C)(C)c1cccc(Cl)c1)C(=O)N[C@H](C=O)C[C@@H]1CCNC1=O | 6.57 | 6.77 | > 100000
8 | O=C[C@H](C[C@@H]1CCNC1=O)NC(=O)[C@H](CC1CCCCC1)NC(=O)OCCCc1cccc(Cl)c1 |  | 7.10 | 30300
9 | CC(C)(COC(=O)N[C@@H](CC1CCCCC1)C(=O)N[C@@H](C[C@@H]1CCNC1=O)C(O)S(=O)(=O)O)c1ccccc1 (some centres not stated) | 6.49 | 6.30 | 83900
10 | CCCCCC(=O)OC([C@H](C[C@@H]1CCNC1=O)NC(=O)[C@H](CC1CCCCC1)NC(=O)OCC(C)(C)Cc1cccc(Cl)c1)S(=O)(=O)O (some centres not stated) |  | 7.10 | 20700
11 | CC(C)C[C@H](NC(=O)OCC(C)(C)c1cccc(Cl)c1)C(=O)N[C@@H](C[C@@H]1CCNC1=O)C(O)S(=O)(=O)O (some centres not stated) | 6.52 | 6.72 | > 100000
12 | CC(C)C[C@H](NC(=O)OCC(C)(C)c1ccccc1)C(=O)N[C@@H](C[C@@H]1CCNC1=O)C(O)S(=O)(=O)O (some centres not stated) | 6.40 | 6.35 | > 100000
13 | CC(C)C[C@H](NC(=O)OC/C=C/c1cccc(Cl)c1)C(=O)N[C@@H](C[C@@H]1CCNC1=O)C(O)S(=O)(=O)O (some centres not stated) | 6.96 | 7.10 | > 100000
14 | O=C[C@H](C[C@@H]1CCNC1=O)NC(=O)[C@H](CC1CCCCC1)NC(=O)OC/C=C/c1cccc(Cl)c1 | 6.85 | 7.22 | 24100
15 | CC(C)(Cc1cccc(Cl)c1)OC(=O)N[C@@H](CC1CCCCC1)C(=O)N[C@@H](C[C@@H]1CCNC1=O)C(O)S(=O)(=O)O (some centres not stated) | 5.17 | 5.54 | 20400
16 | CC(C)(COC(=O)N[C@@H](CC1CCCCC1)C(=O)N[C@H](C=O)C[C@@H]1CCNC1=O)c1ccccc1 | 6.35 | 6.22 | 80100
17 | CC(C)C[C@H](NC(=O)OC(C)(C)Cc1cccc(Cl)c1)C(=O)N[C@@H](C[C@@H]1CCNC1=O)C(O)S(=O)(=O)O (some centres not stated) | 6.00 | 6.15 | > 100000
18 | O=C(N[C@@H](CC1CCCCC1)C(=O)N[C@@H](C[C@@H]1CCNC1=O)C(O)S(=O)(=O)O)OC1(c2cccc(Cl)c2)CC1 (some centres not stated) | 6.57 | 6.74 | 42300
19 | CCC(=O)OC([C@H](C[C@@H]1CCNC1=O)NC(=O)[C@H](CC1CCCCC1)NC(=O)OCC(C)(C)c1cccc(Cl)c1)S(=O)(=O)O (some centres not stated) | 7.15 | 6.66 | 70500

Row | SMILES | pIC50 [1] | pEC50 (Norovirus) | CC50 at 48 h [2] [nM]
20 | CC(C)(COC(=O)N[C@@H](CC1CCCCC1)C(=O)N[C@@H](C[C@@H]1CCNC1=O)C(O)S(=O)(=O)O)c1cccc(Cl)c1 (some centres not stated) | 6.70 | 7.10 | 14300
21 | CC(C)C[C@H](NC(=O)OC(C)(C)c1cccc(Cl)c1)C(=O)N[C@@H](C[C@@H]1CCNC1=O)C(O)S(=O)(=O)O (some centres not stated) | 5.48 | 5.74 | > 100000
22 | O=C(N[C@@H](CC1CCCCC1)C(=O)N[C@@H](C[C@@H]1CCNC1=O)C(O)S(=O)(=O)O)OCCCc1cccc(Cl)c1 (some centres not stated) |  | 7.22 | 
23 | CC(C)(COC(=O)N[C@@H](CC1CCCCC1)C(=O)N[C@@H](C[C@@H]1CCNC1=O)C(O)S(=O)(=O)O)Cc1cccc(Cl)c1 (some centres not stated) | 6.85 | 7.15 | 16200
24 | CC(C)(OC(=O)N[C@@H](CC1CCCCC1)C(=O)N[C@H](C=O)C[C@@H]1CCNC1=O)c1cccc(Cl)c1 | 5.54 | 5.43 | > 100000
25 | CC(C)C[C@H](NC(=O)OCCCc1cccc(Cl)c1)C(=O)N[C@@H](C[C@@H]1CCNC1=O)C(O)S(=O)(=O)O (some centres not stated) | 6.72 | 7.05 | > 100000
26 | CC(C)C[C@H](NC(=O)OC/C=C/c1cccc(Cl)c1)C(=O)N[C@H](C=O)C[C@@H]1CCNC1=O | 6.82 | 7.10 | > 100000
27 | CC(C)C[C@H](NC(=O)OC(C)(C)c1cccc(Cl)c1)C(=O)N[C@H](C=O)C[C@@H]1CCNC1=O | 5.42 | 5.46 | > 100000
28 | CCC(=O)OC([C@H](C[C@@H]1CCNC1=O)NC(=O)[C@H](CC1CCCCC1)NC(=O)OCC(C)(C)Cc1cccc(Cl)c1)S(=O)(=O)O (some centres not stated) | 6.47 | 7.00 | 18400
29 | CC(C)(OC(=O)N[C@@H](CC1CCCCC1)C(=O)N[C@@H](C[C@@H]1CCNC1=O)C(O)S(=O)(=O)O)c1cccc(Cl)c1 (some centres not stated) | 5.57 | 5.54 | > 100000
30 | CC(C)C[C@H](NC(=O)OC1(c2cccc(Cl)c2)CC1)C(=O)N[C@H](C=O)C[C@@H]1CCNC1=O | 6.55 | 6.19 | > 100000
31 | O=C[C@H](C[C@@H]1CCNC1=O)NC(=O)[C@H](CC1CCCCC1)NC(=O)OC1(c2cccc(Cl)c2)CC1 | 6.55 | 6.60 | 36500
32 | CC(C)(COC(=O)N[C@@H](CC1CCCCC1)C(=O)N[C@H](C=O)C[C@@H]1CCNC1=O)Cc1cccc(Cl)c1 | 6.96 | 7.22 | 14100
33 | O=C(N[C@@H](CC1CCCCC1)C(=O)N[C@@H](C[C@@H]1CCNC1=O)C(O)S(=O)(=O)O)OC/C=C/c1cccc(Cl)c1 (some centres not stated) | 6.80 | 7.15 | 28300
34 | CC(C)C[C@H](NC(=O)OC(C)(C)Cc1cccc(Cl)c1)C(=O)N[C@H](C=O)C[C@@H]1CCNC1=O | 5.92 | 6.05 | > 100000
35 | CC(C)C[C@H](NC(=O)OCCCc1cccc(Cl)c1)C(=O)N[C@H](C=O)C[C@@H]1CCNC1=O | 6.59 | 6.80 | > 100000
36 | CC(C)C[C@H](NC(=O)OCC(C)(C)c1ccccc1)C(=O)N[C@H](C=O)C[C@@H]1CCNC1=O | 6.35 | 6.19 | > 100000
37 | CC(C)(COC(=O)N[C@@H](CC1CCCCC1)C(=O)N[C@H](C=O)C[C@@H]1CCNC1=O)c1cccc(Cl)c1 | 6.64 | 7.15 | 13300
